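The compound was tested at five concentrations on cells cultured in 96-well plates, with a 48-hour exposure period. Here, GI50 denotes the concentration required for 50% inhibition of growth.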 Calls of active or inactive are those of the source. Rule as the data show it: active = GI50 up to about 1.1 µM and inactive = higher. Non-standard residues stand in square brackets, D forms with d. Residues, ends and D or L forms follow the SMILES beside them.
Tests used:
Assay in all cases: NCI-60 cell line screen, 48 h
PC-3 = test system: PC-3
MDA-MB-231 = test system: MDA-MB-231
UACC-62 = test system: UACC-62
HCT-15 = test system: HCT-15
MDA-N = test system: MDA-N
Hs-578T = test system: Hs-578T
MOLT-4 = test system: MOLT-4
HOP-62 = test system: HOP-62
A498 = test system: A498
SK-OV-3 = test system: SK-OV-3
T47D = test system: T47D
TK-10 = test system: TK-10
M19-MEL = test system: M19-MEL
SNB-78 = test system: SNB-78
XF498 = test system: XF498
NCI/ADR-RES = test system: NCI/ADR-RES
BT-549 = test system: BT-549
DU-145 = test system: DU-145
MDA-MB-435 = test system: MDA-MB-435
M14 = test system: M14

c1csc(C(NC2=NCCO2)C2CC2)c1 (stereo not given)
GI50 (PC-3): > 100 µM (inactive) | GI50 (MDA-MB-231): > 100 µM (inactive) | GI50 (UACC-62): > 100 µM (inactive) | GI50 (HCT-15): > 100 µM | GI50 (MDA-N): > 100 µM (inactive) | GI50 (Hs-578T): > 100 µM (inactive) | GI50 (MOLT-4): > 100 µM (inactive) | GI50 (HOP-62): > 100 µM (inactive) | GI50 (A498): > 100 µM (inactive) | GI50 (SK-OV-3): > 100 µM (inactive) | GI50 (T47D): > 100 µM (inactive)

CN(C)c1nc(N(C)C)nc(N(C)CN(C)c2ccc(Cl)cc2)n1
GI50 (TK-10): > 100 µM (inactive) | GI50 (UACC-62): > 100 µM (inactive) | GI50 (HCT-15): > 100 µM | GI50 (MOLT-4): > 100 µM (inactive) | GI50 (M19-MEL): > 100 µM (inactive) | GI50 (SK-OV-3): > 100 µM (inactive) | GI50 (SNB-78): > 100 µM (inactive) | GI50 (XF498): > 100 µM (inactive)

CN(C)CCNc1c2ccccc2c2c3c(cccc13)C(=O)N(CCN(C)C)C2=O
GI50 (NCI/ADR-RES): 0.0627 µM (active) | GI50 (UACC-62): 0.308 µM (active) | GI50 (HCT-15): 0.0615 µM | GI50 (MOLT-4): 0.0625 µM (active) | GI50 (HOP-62): 1.67 µM (inactive) | GI50 (A498): 0.641 µM (active) | GI50 (SK-OV-3): 0.221 µM (active) | GI50 (SNB-78): 0.151 µM (active) | GI50 (XF498): 0.267 µM (active)

COc1cc2c3c(c4cc(OC)c(OC)cc4c2cc1OC)C(=O)C1CCC(=O)N1C3 (stereo not given)
GI50 (PC-3): 25.6 µM (inactive) | GI50 (NCI/ADR-RES): 94.4 µM (inactive) | GI50 (TK-10): 12.8 µM (inactive) | GI50 (MDA-MB-231): 55.5 µM (inactive) | GI50 (UACC-62): 16.6 µM (inactive) | GI50 (BT-549): 14.8 µM (inactive) | GI50 (HCT-15): 31.6 µM | GI50 (Hs-578T): 3.3 µM (inactive) | GI50 (MOLT-4): 3.27 µM (inactive) | GI50 (DU-145): 11.5 µM (inactive) | GI50 (MDA-MB-435): 21.9 µM (inactive) | GI50 (HOP-62): 13.6 µM (inactive) | GI50 (A498): 14.9 µM (inactive) | GI50 (SK-OV-3): 14.2 µM (inactive) | GI50 (T47D): 8.71 µM (inactive)

CC(=O)NCCC1CN(C(=O)/C=C\C#C[Si](C)(C)C)c2ccccc21 (stereo not given)
GI50 (PC-3): 27 µM (inactive) | GI50 (NCI/ADR-RES): 22.1 µM (inactive) | GI50 (TK-10): 23 µM (inactive) | GI50 (MDA-MB-231): 17.3 µM (inactive) | GI50 (M14): 13.3 µM (inactive) | GI50 (UACC-62): 8.49 µM (inactive) | GI50 (BT-549): 21 µM (inactive) | GI50 (HCT-15): 17.2 µM | GI50 (MDA-N): 13.5 µM (inactive) | GI50 (Hs-578T): 33 µM (inactive) | GI50 (MOLT-4): 17.3 µM (inactive) | GI50 (DU-145): 23.3 µM (inactive) | GI50 (MDA-MB-435): 21.2 µM (inactive) | GI50 (A498): 45.3 µM (inactive) | GI50 (SK-OV-3): 25.3 µM (inactive) | GI50 (T47D): 23.3 µM (inactive)

COc1ccc(/C=N/n2cnc3c(c2=O)S/C(=C2/SC(=S)N(c4ccc(C)cc4)C2=O)N3c2ccccc2)cc1
GI50 (TK-10): > 100 µM (inactive) | GI50 (M14): 19.5 µM (inactive) | GI50 (UACC-62): 17.4 µM (inactive) | GI50 (HCT-15): > 100 µM | GI50 (MOLT-4): > 10 µM (inactive) | GI50 (HOP-62): 22.8 µM (inactive) | GI50 (M19-MEL): > 100 µM (inactive) | GI50 (SK-OV-3): > 100 µM (inactive)

Oc1ccc(-c2nc3ccc(Br)cc3s2)cc1
GI50 (PC-3): 19.2 µM (inactive) | GI50 (NCI/ADR-RES): 18.1 µM (inactive) | GI50 (TK-10): 17.3 µM (inactive) | GI50 (MDA-MB-231): 16.3 µM (inactive) | GI50 (M14): 18.9 µM (inactive) | GI50 (UACC-62): 13 µM (inactive) | GI50 (BT-549): 18.1 µM (inactive) | GI50 (HCT-15): 20.3 µM | GI50 (MDA-N): 25.6 µM (inactive) | GI50 (MOLT-4): 33.3 µM (inactive) | GI50 (DU-145): 16.9 µM (inactive) | GI50 (MDA-MB-435): 21.1 µM (inactive) | GI50 (SK-OV-3): 19.5 µM (inactive)

CC(C)C[C@H](NC(=O)[C@H](CC(C)C)NC(=O)[C@@H](Cc1c[nH]c2ccccc12)NC(=O)[C@H](Cc1ccccc1)NC(=O)[C@@H](Cc1c[nH]c2ccccc12)NC(=O)[C@H](CCC(N)=O)NC(=O)[C@H](CCC(N)=O)NC(=O)[C@H]1CCCN1C(=O)[C@@H](N)CCCCN)C(N)=O (H-K[dP]QQ[dW]F[dW]LL-NH2)
GI50 (NCI/ADR-RES): > 100 µM (inactive) | GI50 (UACC-62): > 100 µM (inactive) | GI50 (HCT-15): > 100 µM | GI50 (MOLT-4): > 100 µM (inactive) | GI50 (HOP-62): > 100 µM (inactive) | GI50 (M19-MEL): > 100 µM (inactive) | GI50 (A498): > 100 µM (inactive) | GI50 (SK-OV-3): > 100 µM (inactive) | GI50 (SNB-78): > 100 µM (inactive) | GI50 (XF498): > 100 µM (inactive)
